For 23 compounds, EC50 and Ratio EC50 results are on record in ChEMBL document CHEMBL4602612, “Design, synthesis and biological evaluation of mogrol derivatives as a novel class of AMPKα2β1γ1 activators” (Bioorg Med Chem Lett, 2020).

For the first assay, the target named is AMPK alpha2/beta1/gamma1 (Homo sapiens, UniProt P54619+P54646+Q9Y478). The experiment in a line: Allosteric activation of AMPK alpha2/beta1/gamma1 in human HepG2 cells by scintillation proximity assay. In kind it is cell-based. For orientation: Scintillation proximity formats need no separation of bound from free tracer.
AMPK alpha2/beta1/gamma1, sequence (P54646 whole entry): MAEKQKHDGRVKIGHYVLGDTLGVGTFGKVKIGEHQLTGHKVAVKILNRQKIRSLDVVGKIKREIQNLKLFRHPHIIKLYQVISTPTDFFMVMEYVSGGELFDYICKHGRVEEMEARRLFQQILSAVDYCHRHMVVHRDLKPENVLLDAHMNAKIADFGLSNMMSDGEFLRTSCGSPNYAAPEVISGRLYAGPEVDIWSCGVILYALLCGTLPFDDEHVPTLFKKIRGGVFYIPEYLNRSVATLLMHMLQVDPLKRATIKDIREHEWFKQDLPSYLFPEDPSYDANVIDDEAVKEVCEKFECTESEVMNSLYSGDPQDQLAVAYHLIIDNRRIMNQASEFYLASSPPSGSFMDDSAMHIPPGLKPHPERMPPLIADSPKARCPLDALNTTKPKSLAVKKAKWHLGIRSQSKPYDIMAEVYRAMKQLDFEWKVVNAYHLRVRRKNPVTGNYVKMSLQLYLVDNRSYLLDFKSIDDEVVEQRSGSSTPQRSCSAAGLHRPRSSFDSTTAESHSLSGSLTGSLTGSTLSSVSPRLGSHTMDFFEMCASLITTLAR
AMPK alpha2/beta1/gamma1, sequence (P54619 whole entry): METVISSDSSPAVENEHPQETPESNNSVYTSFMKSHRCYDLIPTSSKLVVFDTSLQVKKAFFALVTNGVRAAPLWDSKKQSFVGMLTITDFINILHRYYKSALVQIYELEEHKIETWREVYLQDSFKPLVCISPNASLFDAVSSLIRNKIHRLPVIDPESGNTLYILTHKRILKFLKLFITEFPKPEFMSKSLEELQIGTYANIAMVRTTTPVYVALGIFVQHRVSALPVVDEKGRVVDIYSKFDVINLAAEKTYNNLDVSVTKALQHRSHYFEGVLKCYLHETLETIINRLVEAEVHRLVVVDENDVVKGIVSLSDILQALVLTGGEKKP
AMPK alpha2/beta1/gamma1, sequence (Q9Y478 whole entry): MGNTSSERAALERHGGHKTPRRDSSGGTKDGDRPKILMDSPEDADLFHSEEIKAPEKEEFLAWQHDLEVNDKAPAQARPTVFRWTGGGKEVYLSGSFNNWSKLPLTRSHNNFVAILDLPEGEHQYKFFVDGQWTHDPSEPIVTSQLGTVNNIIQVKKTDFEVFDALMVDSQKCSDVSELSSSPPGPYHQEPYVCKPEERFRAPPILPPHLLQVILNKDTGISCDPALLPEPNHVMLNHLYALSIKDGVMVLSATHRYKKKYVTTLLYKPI
The term EC50 denotes the concentration at which the effect is half-maximal. Read a low EC50 as an effect from little substance. In turn, `C[C@H](CCCNC1CC1)[C@H]1CC[C@@]2(C)[C@@H]3CC=C4[C@@H](CC[C@H](O)C4(C)C)[C@]3(C)[C@H](O)C[C@]12C` registered an EC50 of 4.1 µM. This lies in the single-digit micromolar range. As for `C[C@H](CCCNCCc1ccc([N+](=O)[O-])cc1)[C@H]1CC[C@@]2(C)[C@@H]3CC=C4[C@@H](CC[C@H](O)C4(C)C)[C@]3(C)[C@H](O)C[C@]12C`, the response was half-maximal at 1.7 µM (EC50). Same read-out and setting: as for `C[C@H](CCCNCCCO)[C@H]1CC[C@@]2(C)[C@@H]3CC=C4[C@@H](CC[C@H](O)C4(C)C)[C@]3(C)[C@H](O)C[C@]12C`, the figure is 1.4 µM; as for `COc1ccc(CCNCCC[C@@H](C)[C@H]2CC[C@@]3(C)[C@@H]4CC=C5[C@@H](CC[C@H](O)C5(C)C)[C@]4(C)[C@H](O)C[C@]23C)cc1OC`, 0.5 µM. Compound `COc1ccc(NCCC[C@@H](C)[C@H]2CC[C@@]3(C)[C@@H]4CC=C5[C@@H](CC[C@H](O)C5(C)C)[C@]4(C)[C@H](O)C[C@]23C)cc1` displayed a concentration for a half-maximal effect (EC50) of 4.7 µM. Against the preceding compound, the EC50 is about 9.4-fold higher. `C[C@H](CCCNCc1ccc(F)cc1)[C@H]1CC[C@@]2(C)[C@@H]3CC=C4[C@@H](CC[C@H](O)C4(C)C)[C@]3(C)[C@H](O)C[C@]12C`: the EC50 came to 0.7 µM.

For `Nc1ncnc2c1ncn2[C@@H]1O[C@H](COP(=O)(O)O)[C@@H](O)[C@H]1O` [ADENOSINE PHOSPHATE], a half-maximal response (EC50) required 1.4 µM. On the same count and under the same terms, as for `CC(C)NCCC[C@@H](C)[C@H]1CC[C@@]2(C)[C@@H]3CC=C4[C@@H](CC[C@H](O)C4(C)C)[C@]3(C)[C@H](O)C[C@]12C`, the figure is 0.14 µM; as for `C[C@H](CC[C@@H](O)C(C)(C)O)[C@H]1CC[C@@]2(C)[C@@H]3CC=C4[C@@H](CC[C@H](O)C4(C)C)[C@]3(C)[C@H](O)C[C@]12C` [MOGROL], 3 µM; as for `CCCNCCC[C@@H](C)[C@H]1CC[C@@]2(C)[C@@H]3CC=C4[C@@H](CC[C@H](O)C4(C)C)[C@]3(C)[C@H](O)C[C@]12C`, 0.15 µM. The same measure, in the same setting: as for `C[C@H](CCCNCCN1CCNCC1)[C@H]1CC[C@@]2(C)[C@@H]3CC=C4[C@@H](CC[C@H](O)C4(C)C)[C@]3(C)[C@H](O)C[C@]12C`, the figure is 0.5 µM; as for `C[C@H](CCCNCCc1ccccc1)[C@H]1CC[C@@]2(C)[C@@H]3CC=C4[C@@H](CC[C@H](O)C4(C)C)[C@]3(C)[C@H](O)C[C@]12C`, 2 µM. Same read-out and setting: as for `C[C@H](CCCNCCCn1ccnc1)[C@H]1CC[C@@]2(C)[C@@H]3CC=C4[C@@H](CC[C@H](O)C4(C)C)[C@]3(C)[C@H](O)C[C@]12C`, the figure is 3.5 µM; as for `C[C@H](CCCNC(C)(C)C)[C@H]1CC[C@@]2(C)[C@@H]3CC=C4[C@@H](CC[C@H](O)C4(C)C)[C@]3(C)[C@H](O)C[C@]12C`, 1.4 µM. With `CCNCCC[C@@H](C)[C@H]1CC[C@@]2(C)[C@@H]3CC=C4[C@@H](CC[C@H](O)C4(C)C)[C@]3(C)[C@H](O)C[C@]12C`, the EC50 came out at 5 µM.

Compound `C[C@H](NCCC[C@@H](C)[C@H]1CC[C@@]2(C)[C@@H]3CC=C4[C@@H](CC[C@H](O)C4(C)C)[C@]3(C)[C@H](O)C[C@]12C)c1ccccc1` yielded an EC50 of 1.7 µM. `C[C@H](CCCNCc1ccccc1)[C@H]1CC[C@@]2(C)[C@@H]3CC=C4[C@@H](CC[C@H](O)C4(C)C)[C@]3(C)[C@H](O)C[C@]12C` returned an EC50 of 1.5 µM. This EC50 and that of the compound before are within 1.5-fold of each other.

Compound `CNCCC[C@@H](C)[C@H]1CC[C@@]2(C)[C@@H]3CC=C4[C@@H](CC[C@H](O)C4(C)C)[C@]3(C)[C@H](O)C[C@]12C` yielded an EC50 of 7.4 µM. Regarding `C[C@H](CCCNCc1ccccn1)[C@H]1CC[C@@]2(C)[C@@H]3CC=C4[C@@H](CC[C@H](O)C4(C)C)[C@]3(C)[C@H](O)C[C@]12C`, the EC50 worked out at 1.6 µM. The compound `C[C@H](CCCNCc1ccncc1)[C@H]1CC[C@@]2(C)[C@@H]3CC=C4[C@@H](CC[C@H](O)C4(C)C)[C@]3(C)[C@H](O)C[C@]12C` came in with an EC50 of 0.5 µM.

In turn, `C[C@H](CCCNCc1cccnc1)[C@H]1CC[C@@]2(C)[C@@H]3CC=C4[C@@H](CC[C@H](O)C4(C)C)[C@]3(C)[C@H](O)C[C@]12C` had an EC50 of 0.7 µM.

`COc1ccc(CNCCC[C@@H](C)[C@H]2CC[C@@]3(C)[C@@H]4CC=C5[C@@H](CC[C@H](O)C5(C)C)[C@]4(C)[C@H](O)C[C@]23C)cc1OC` displayed an EC50 of 0.2 µM. On the same count and under the same terms, for `C[C@H](CCCNCc1ccc(Cl)cc1)[C@H]1CC[C@@]2(C)[C@@H]3CC=C4[C@@H](CC[C@H](O)C4(C)C)[C@]3(C)[C@H](O)C[C@]12C` the value was 0.6 µM.

In the next assay the target is AMPK alpha2/beta1/gamma1 (Homo sapiens) (UniProt P54646+P54619+Q9Y478). Briefly: Potency index, ratio of mogrol EC50 to test compound EC50 for allosteric activation of AMPK alpha2/beta1/gamma1 in human HepG2 cells by scintillation proximity assay. Format: cell-based.
AMPK alpha2/beta1/gamma1 (Homo sapiens), sequence (P54619 whole entry partner): as the sequence (P54619 whole entry) above
AMPK alpha2/beta1/gamma1 (Homo sapiens), sequence (P54646 whole entry): as the sequence (P54646 whole entry) above
AMPK alpha2/beta1/gamma1 (Homo sapiens), sequence (Q9Y478 2-270 partner limits assumed): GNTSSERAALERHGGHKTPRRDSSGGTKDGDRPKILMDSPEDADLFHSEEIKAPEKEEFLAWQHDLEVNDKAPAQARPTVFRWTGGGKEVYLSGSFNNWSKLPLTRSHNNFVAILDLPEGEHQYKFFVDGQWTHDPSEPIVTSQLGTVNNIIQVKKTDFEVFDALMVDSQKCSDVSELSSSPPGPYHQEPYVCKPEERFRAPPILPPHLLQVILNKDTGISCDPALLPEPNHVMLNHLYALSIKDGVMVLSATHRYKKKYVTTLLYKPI
For `CC(C)NCCC[C@@H](C)[C@H]1CC[C@@]2(C)[C@@H]3CC=C4[C@@H](CC[C@H](O)C4(C)C)[C@]3(C)[C@H](O)C[C@]12C`, the Ratio EC50 stood at 20. In the case of `CCCNCCC[C@@H](C)[C@H]1CC[C@@]2(C)[C@@H]3CC=C4[C@@H](CC[C@H](O)C4(C)C)[C@]3(C)[C@H](O)C[C@]12C`, the Ratio EC50 stood at 20.
